Assay: recombinant UMI read abundance after kanamycin selection (control-corrected) (log10(CPM+1)); higher = more efficient recombination; extreme values may be limits of the assay; sequences stand for … in AGTGCAGAGAAAATCGGCCAGTTTTCTCTGCCTGCAGTCCGCATGCCGTGGGACCCCTTGGGTTCTAACCTGTTGCCTAGATTTATGCAGCGGACTGCCTTTCTCCCAAAGTGATAAACCGG…AGGTTGGTTTCACT; site = the 11-nt donor
Method: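 Pooled E. coli donor-specificity screen for the IS621 bridge recombinase. Each library member carries a reprogrammed 11-nt donor and a full-length LE bridge RNA expressed in cis from the natural promoter, with a paired donor-binding loop (8-nt LDG + 4-nt RDG) and a target-binding loop fixed to T5. It is co-electroporated with a T5 target plasmid; recombinase is induced with 0.07 mM IPTG and recombinants are selected on kanamycin. UMIs are counted as CPM, averaged over two biological replicates and corrected by the unselected control. Molecule = full bridge RNA written as DNA, built from the T5 scaffold: LDG = donor specificity nt 1-8, RDG = reverse complement of nt 8-11.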
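Note: IS621 bridge recombinase in Escherichia coli cells against a fixed T5 target plasmid.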

Row | Sequence | recombinant UMI read abundance (log10)
1 | AAGCACGCATGGACCGGTTTTCCCGGTAATCCGTATTTGGG (site AAGCACACTCC) | 0.0106
2 | AAGCACGCATGGACCGGTTTTCCCGGTAATCCGTATTTGGG (site AAGCACCCTCC) | 0
3 | AAGCACGCATGGACCGGTTTTCCCGGTAATCCGTATTTGGG (site AAGCACGCTAC) | 0.0125
4 | AAGCACGCATGGACCGGTTTTCCCGGTAATCCGTATTTGGG (site AAGCACGCTCA) | 0.0347
5 | AAGCACGCATGGACCGGTTTTCCCGGTAATCCGTATTTGGG (site AAGCACGCTCC) | 0.133
6 | AAGCACGCATGGACCGGTTTTCCCGGTAATCCGTATTTGGG (site AAGCACGCTCG) | 0.00834
7 | AAGCACGCATGGACCGGTTTTCCCGGTAATCCGTATTTGGG (site AAGCACGCTCT) | 0.265
8 | AAGCACGCATGGACCGGTTTTCCCGGTAATCCGTATTTGGG (site AAGCACGCTGC) | 0
9 | AAGCACGCATGGACCGGTTTTCCCGGTAATCCGTATTTGGG (site AAGCACGCTTC) | 0.012
10 | AAGCACGCATGGACCGGTTTTCCCGGTAATCCGTATTTGGG (site AAGCACTCTCC) | 0.0617
11 | AAGCACGCATGGACCGGTTTTCCCGGTAATCCGTATTTGGG (site AAGCAGGCTCC) | 0.0132
12 | AAGCACGCATGGACCGGTTTTCCCGGTAATCCGTATTTGGG (site AAGCATGCTCC) | 0.0182
13 | AAGCACGCATGGACCGGTTTTCCCGGTAATCCGTATTTGGG (site AAGCCCGCTCC) | 0.0231
14 | AAGCACGCATGGACCGGTTTTCCCGGTAATCCGTATTTGGG (site AAGCGCGCTCC) | 0.0213
15 | AAGCACGCATGGACCGGTTTTCCCGGTAATCCGTATTTGGG (site AAGCTCGCTCC) | 0.0309
16 | AAGCACGCATGGACCGGTTTTCCCGGTAATCCGTATTTGGG (site AAGGACGCTCC) | 0.00889
17 | AAGCACGCATGGACCGGTTTTCCCGGTAATCCGTATTTGGG (site AAGTACGCTCC) | 0.0168
18 | AAGCACGCATGGACCGGTTTTCCCGGTAATCCGTATTTGGG (site AATCACGCTCC) | 0.0177
19 | AAGCACGCATGGACCGGTTTTCCCGGTAATCCGTATTTGGG (site ACGCACGCTCC) | 0.0214
20 | AAGCACGCATGGACCGGTTTTCCCGGTAATCCGTATTTGGG (site AGGCACGCTCC) | 0.0204
21 | AAGCACGCATGGACCGGTTTTCCCGGTAATCCGTATTTGGG (site ATGCACGCTCC) | 0.0113
22 | AAGCACGCATGGACCGGTTTTCCCGGTAATCCGTATTTGGG (site CAGCACGCTCC) | 0.00873
23 | AAGCACGCATGGACCGGTTTTCCCGGTAATCCGTATTTGGG (site GAGCACGCTCC) | 0.0379
24 | AAGCACGCATGGACCGGTTTTCCCGGTAATCCGTATTTGGG (site TAGCACGCTCC) | 0.0044

Row | Sequence | recombinant UMI read abundance (log10)
25 | AAGCGGTCATGGACCGGTTTTCCCGGTAATCCGTATTTGTT (site AAGCGGTCTAA) | 1.4
26 | AAGGATACATGGACCGGTTTTCCCGGTAATCCGTATTTGCC (site AAGGATACTGG) | 2.67
27 | AAGGCCCCATGGACCGGTTTTCCCGGTAATCCGTATTTGGT (site AAGGCCCCTAC) | 0.395
28 | AAGGGATCATGGACCGGTTTTCCCGGTAATCCGTATTTGTT (site AAGGGATCTAA) | 2.95
29 | AAGGGCTCATGGACCGGTTTTCCCGGTAATCCGTATTTGGC (site AAGGGCTCTGC) | 3.63
30 | AAGTAGACATGGACCGGTTTTCCCGGTAATCCGTATTTGCA (site AAGTAGACTTG) | 2.72
31 | AAGTAGACATGGACCGGTTTTCCCGGTAATCCGTATTTGCA (site AGGAAGACTTG) | 0.52
32 | AAGTCGACATGGACCGGTTTTCCCGGTAATCCGTATTTGAA (site AAGTCGACTTT) | 0.435
33 | AAGTCGCCATGGACCGGTTTTCCCGGTAATCCGTATTTGGT (site AAGTCGCCTAC) | 0.0178
34 | AAGTGTGCATGGACCGGTTTTCCCGGTAATCCGTATTTGTC (site AAGTGTGCTGA) | 2.99
35 | AAGTTGTCATGGACCGGTTTTCCCGGTAATCCGTATTTGTC (site AAGTTGTCTGA) | 2.09
36 | AATAAAGCATGGACCGGTTTTCCCGGTAATCCGTATTTGGC (site AATAAAGCTGC) | 1.32
37 | AATAAGACATGGACCGGTTTTCCCGGTAATCCGTATTTGCA (site AATAAGACTTG) | 2.17
38 | AATAAGACATGGACCGGTTTTCCCGGTAATCCGTATTTGCA (site AGGAAGACTTG) | 1.4
39 | AATACTTCATGGACCGGTTTTCCCGGTAATCCGTATTTGAG (site AATACTTCTCT) | 1.6
40 | AATAGTACATGGACCGGTTTTCCCGGTAATCCGTATTTGTC (site AATAGTACTGA) | 1.89
41 | AATAGTGCATGGACCGGTTTTCCCGGTAATCCGTATTTGCC (site AATAGTGCTGG) | 1.5
42 | AATATGGCATGGACCGGTTTTCCCGGTAATCCGTATTTGCG (site AATATGGCTCG) | 1.22
43 | AATCAATCATGGACCGGTTTTCCCGGTAATCCGTATTTGCC (site AATCAATCTGG) | 1.98
44 | AATCACGCATGGACCGGTTTTCCCGGTAATCCGTATTTGGG (site AAACACGCTCC) | 0.0181
45 | AATCACGCATGGACCGGTTTTCCCGGTAATCCGTATTTGGG (site AACCACGCTCC) | 0.0334
46 | AATCACGCATGGACCGGTTTTCCCGGTAATCCGTATTTGGG (site AAGCACGCTCC) | 0.0135
47 | AATCACGCATGGACCGGTTTTCCCGGTAATCCGTATTTGGG (site AATCACGCTCC) | 0.0109
48 | AATCCATCATGGACCGGTTTTCCCGGTAATCCGTATTTGAT (site AATCCATCTAT) | 0.288

Row | Sequence | recombinant UMI read abundance (log10)
49 | AATCGAACATGGACCGGTTTTCCCGGTAATCCGTATTTGTC (site AATCGAACTGA) | 0.559
50 | AATCGGACATGGACCGGTTTTCCCGGTAATCCGTATTTGAT (site AATCGGACTAT) | 1.01
51 | AATCTCTCATGGACCGGTTTTCCCGGTAATCCGTATTTGGC (site AATCTCTCTGC) | 2.62
52 | AATCTTGCATGGACCGGTTTTCCCGGTAATCCGTATTTGTC (site AATCTTGCTGA) | 1.07
53 | AATGACCCATGGACCGGTTTTCCCGGTAATCCGTATTTGTT (site AATGACCCTAA) | 0.0112
54 | AATGACTCATGGACCGGTTTTCCCGGTAATCCGTATTTGAG (site AATGACTCTCT) | 2.08
55 | AATGACTCATGGACCGGTTTTCCCGGTAATCCGTATTTGGT (site AATGACTCTAC) | 2.1
56 | AATGCAACATGGACCGGTTTTCCCGGTAATCCGTATTTGTG (site AATGCAACTCA) | 0.302
57 | AATGCACCATGGACCGGTTTTCCCGGTAATCCGTATTTGTG (site AATGCACCTCA) | 0.0217
58 | AATGCAGCATGGACCGGTTTTCCCGGTAATCCGTATTTGAA (site AATGCAGCTTT) | 0.709
59 | AATGGAACATGGACCGGTTTTCCCGGTAATCCGTATTTGCT (site AATGAAACTAG) | 0.482
60 | AATGGAACATGGACCGGTTTTCCCGGTAATCCGTATTTGCT (site AATGCAACTAG) | 1.05
61 | AATGGAACATGGACCGGTTTTCCCGGTAATCCGTATTTGCT (site AATGGAACTAG) | 2.12
62 | AATGGAACATGGACCGGTTTTCCCGGTAATCCGTATTTGCT (site AATGTAACTAG) | 1.78
63 | AATGGATCATGGACCGGTTTTCCCGGTAATCCGTATTTGAA (site AATGGATCTTT) | 2.07
64 | AATGTACCATGGACCGGTTTTCCCGGTAATCCGTATTTGCG (site AATGTACCTCG) | 0.0178
65 | AATGTCACATGGACCGGTTTTCCCGGTAATCCGTATTTGCT (site AATGTAACTAG) | 0.799
66 | AATGTCACATGGACCGGTTTTCCCGGTAATCCGTATTTGCT (site AATGTCACTAG) | 2.41
67 | AATGTCACATGGACCGGTTTTCCCGGTAATCCGTATTTGCT (site AATGTGACTAG) | 0.0645
68 | AATGTCACATGGACCGGTTTTCCCGGTAATCCGTATTTGCT (site AATGTTACTAG) | 0.647
69 | AATGTCTCATGGACCGGTTTTCCCGGTAATCCGTATTTGAC (site AATGTATCTGT) | 1.32
70 | AATGTCTCATGGACCGGTTTTCCCGGTAATCCGTATTTGAC (site AATGTCTCTGT) | 2.21
71 | AATGTCTCATGGACCGGTTTTCCCGGTAATCCGTATTTGAC (site AATGTGTCTGT) | 0
72 | AATGTCTCATGGACCGGTTTTCCCGGTAATCCGTATTTGAC (site AATGTTTCTGT) | 0
